Data from patent US20050267126A1, “Compounds derived from aryl carbamates, preparation thereof and uses of same” (priority 2002, published 2005).

Target: T1, human isoform h5-HT4e (Homo sapiens, UniProt Q13639)
T1 construct: expressed in transfected cells; host or cells: rat glial cells, stably expressing; membranes prepared from homogenized cells
Experiment: displacement of radiolabelled ligand [3H]-GR113808, affinity constant Ki
Format: binding
Details: [3H]-GR113808 0.2 nM; membranes of rat glial cells stably expressing h5-HT4e; 25° C., 30 min
Description: The compounds of the invention were evaluated by measuring their affinity constant Ki determined by displacement of a radiolabelled ligand [^3H]—GR113808 in rat glial cells stably expressing the human isoform h5-HT4e.
Confluent glial cells were washed twice with PBS and centrifuged at 300 g for 5 min. The pellet was used immediately and the cells were suspended in 10 volumes of HEPES (50 mM, pH 7.4, 4° C.) then homogenized in a teflon homogenizer and centrifuged at 40,000 g for 20 min. The pellet was again suspended in 15 volumes of HEPES. Binding displacement experiments were carried out in […] of 50 mM HEPES buffer containing 20 μl of the radiolabelled ligand [^3H]—GR113808 at a concentration of 0.2 nM for the isoform h5-HT4e or at a concentration equal to one-half the Kd of the radioligand for the other isoforms expressed in COS cells, 20 μl of competitor ligand at 7 different concentrations and 50 μl of membrane preparation (100-200 μg of protein determined by the Bradford method). Binding was carried out at 25° C. for 30 min and the reaction was stopped by rapid vacuum filtration (Brandel Harvester) on Whatman GF/B filters preincubated in 0.1% PEI to reduce nonspecific binding.
Membrane-bound radioactivity was retained on the filter, which was cut and washed with cold buffer (50 mM Tris-HCl, pH 7.4) and incubated overnight in 4 ml of scintillation fluid. Radioactivity was measured in a liquid scintillation counter (Beckmann LS 6500C). Binding data were obtained by computer-assisted linear regression. (Graph Prism Program, Graph Pad Software. Inc., San Diego, Calif.)

T1 sequence (Q13639 1-378 isoform Q13639-5): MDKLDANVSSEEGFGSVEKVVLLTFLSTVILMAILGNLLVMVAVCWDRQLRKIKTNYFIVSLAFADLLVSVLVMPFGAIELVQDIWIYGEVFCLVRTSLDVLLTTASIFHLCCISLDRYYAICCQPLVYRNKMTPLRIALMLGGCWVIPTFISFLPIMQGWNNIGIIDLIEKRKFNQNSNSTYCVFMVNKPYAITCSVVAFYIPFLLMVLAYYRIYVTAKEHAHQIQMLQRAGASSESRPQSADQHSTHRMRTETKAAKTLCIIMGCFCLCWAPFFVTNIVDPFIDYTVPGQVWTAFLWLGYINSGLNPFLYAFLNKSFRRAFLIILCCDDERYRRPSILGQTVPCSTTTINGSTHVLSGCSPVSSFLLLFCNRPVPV

| Compound | Ki |
| --- | --- |
| CCOc1ccccc1NC(=O)OCCN1CCN(c2cccc(NC(=O)C3=CCCN(C)C3)c2)CC1 [Example 21, 2-(4-{3-[(1-methyl-1,2,5,6-tetrahydro-pyridine-3-carbonyl)-amino]-phenyl}-piperazin-1-yl)-ethyl-N-(2-ethoxy-phenyl)carbamate] | 0.13 nM |
| CCOc1ccccc1NC(=O)OCCN1CCN(c2cccc(NC(=O)NCCCN3CCN(C)CC3)c2)CC1 [Example 60, 2-[4-(3-{3-[3-(4-methyl-piperazin-1-yl)-propyl]-ureido}-phenyl)-piperazin-1-yl]-ethyl-N-(2-ethoxy-phenyl)carbamate] | 0.2 nM |
| CCOc1ccccc1NC(=O)OCCN1CCN(c2cccc(NC(=O)N3CCC(N4CCCC4)CC3)c2)CC1 [Example 59, 2-(4-{3-[(4-pyrrolidin-1-yl-piperidine-1-carbonyl)-amino]-phenyl}-piperazin-1-yl)-ethyl-N-(2-ethoxy-phenyl)carbamate] | 0.24 nM |
| CCOc1ccccc1NC(=O)OCCN1CCN(c2cccc(NC(=O)NCC3CCCN3CC)c2)CC1 (centres unmarked) [Example 57, 2-(4-{3-[3-(1-ethyl-pyrrolidin-2-ylmethyl)-ureido]-phenyl}-piperazin-1-yl)-ethyl-N-(2-ethoxy-phenyl)carbamate] | 0.09 nM |

The remaining lines, values ahead:

| Ki | Compound |
| --- | --- |
| 0.75 nM | CCOc1ccccc1NC(=O)OCCN1CCN(c2cccc(C(=O)N(C)CCN(C)C)c2)CC1 [Example 105, 2-(4-{3-[(2-dimethylamino-ethyl)-methyl-carbamoyl]-phenyl}-piperazin-1-yl)-ethyl N-(2-ethoxy-phenyl)-carbamate] |
| 0.18 nM | CCOc1ccccc1NC(=O)OCCN1CCN(c2cccc(NC(=O)C(N)Cc3ccc(O)cc3)c2)CC1 (centres unmarked) [Example 44, 2-(4-{3-[2-amino-3-(4-hydroxy-phenyl)-propionylamino]-phenyl}-piperazin-1-yl)-ethyl-N-(2-ethoxy-phenyl)carbamate] |
| 0.16 nM | CCOc1ccccc1NC(=O)OCCN1CCN(c2cccc(C(=O)NCCN3CCCCC3)c2)CC1 [Example 78, 2-(4-{3-[2-piperidin-1-yl-ethylcarbamoyl]-phenyl}-piperazin-1-yl)-ethyl-N-(2-ethoxy-phenyl)carbamate] |
| 0.17 nM | CCOc1ccccc1NC(=O)OCCN1CCN(c2cccc(NC(=O)CCN)c2)CC1 [Example 42, 2-{4-[3-(3-amino-propionylamino)-phenyl]-piperazin-1-yl}-ethyl-N-(2-ethoxy-phenyl)carbamate] |
